Test results as given in patent publication US12522597B2, “Methods and compositions for modulating splicing” (Skyhawk Therapeutics, Inc., priority 2019, dated 2026).
Where two headings read alike, the source gives them in different places.

Assays:
[1] = system: Huntingtin (HTT) transcripts; assay: Quantitative splicing assay (HTT), qPCR; assay type: cell-based; conditions: Homo sapiens, GM04724 (CAG 70/20) Huntington's disease patient lymphoblasts, 24 h
Method: GM04724 (CAG 70/20) Huntington's disease patient lymphoblasts (Coriell) are plated in 96-wel v-bottom plates at 50,000 cells/well. Immediately after plating, cells are dosed with compound for 24 h at concentrations ranging from 2.5 uM to 0.15 nM (0.1% DMSO). Treated cells are lysed and cDNA synthesized using the Fast Advanced Cells-to-Ct kit (Thermofisher A35378) according to the manufacturer's instructions. 2 uL of each cDNA are used in qPCR reactions to confirm the compound-induced inclusion of a cryptic exon within intron 49 of the Huntingtin (HTT) transcripts. The qPCR reactions are prepared in 384-well plates in 10 uL volume, using TaqMan™ Fast Advanced Master Mix [ThermoFisher; 4444965] with primers and probes shown in the table below. Reactions are run in a Quant Studio 6 qPCR instrument with default settings.

mHTT protein = mHTT protein assay (2B7-MW1, Mesoscale Discovery); assay type: cell-based, human; conditions: GM04724 (CAG 70/20) Huntington's disease patient lymphoblast cells, 48 hours, 2B7-MW1 MSD; read-out: HTT Potency - Protein EC50 mHTT (average)
Method in brief: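 mHTT levels were read with the 2B7-MW1 antibody pair (N17 and polyQ epitopes) on MSD after 48 h dosing, 10 μM–0.6 nM. Cells were GM04724 HD lymphoblasts (CAG 70/20). A replica plate was read by CTG for cell viability.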

[2] = system: MDR1-MDCK cell monolayers; assay: MDCK-MDR1 permeability assay (BBB penetration potential); assay type: in vitro ADME; conditions: dog, MDCK-MDR1, 120 min, 5 μM, pH 7.4
Method: (§1) Each determination is performed in duplicate. […] Analytical conditions are outlined below.

MDR1 = assay: as above; assay type: in vitro ADME; conditions: dog; for efflux ratio at 120 min, 5 μM: MDCK-MDR1, pH 7.4, MDCK-MDR1: Efflux; for Papp A→B at 120 min, 5 μM: MDCK-MDR1, pH 7.4, MDCK-MDR1: Papp A-B; for Papp B→A at 120 min, 5 μM: MDCK-MDR1, pH 7.4, MDCK-MDR1: Papp B-A
Method: as §1

[3] = qPCR HTTex49_50, read-out: HTT Potency - Splicing: E49-50 EC50 (average)
[4] = qPCR cryptic exon 49b inclusion, read-out: HTT Potency - Splicing: E49b EC50 (average)

Row | SMILES | EC50 [1, 3] [nM] | EC50 [1, 4] [nM] | EC50 (mHTT protein) [nM] | MDCK-MDR1: % Recov A-B [2] [%] | MDCK-MDR1: % Recov B-A [2] [%] | efflux ratio at 120 min, 5 μM (MDR1) | Papp A→B at 120 min, 5 μM (MDR1) [×10⁻⁶ cm/s] | Papp B→A at 120 min, 5 μM (MDR1) [×10⁻⁶ cm/s]
1 | C[C@]12CC[C@](C)(N1)[C@H](F)[C@H](Oc1ccc(-c3ccc(-c4cn[nH]c4)cc3O)nn1)C2 (single isomer, unassigned) [2-ENT1] | 0.01 to 15 | 0.01 to 15 | 0.01 to 15 | 77 | 89 | 12 | 4.15 | 50.7
2 | Cn1ccc(-c2ccc(-c3ccc(O[C@@H]4C[C@H]5CCC[C@H](N5)[C@@H]4F)nn3)c(O)c2)n1 (single isomer, unassigned) [68-ENT1] | 16 to 50 | 16 to 50 | 16 to 50 | 87 | 79 | 6 | 8.61 | 51.9
3 | O=c1cc(-c2ccc(-c3ccc(O[C@H]4C[C@@H]5CCC[C@@H](N5)[C@H]4F)nn3)c(O)c2)cc[nH]1 (single isomer, unassigned) [53-ENT2] | 101 to 500 | 101 to 500 | 101 to 500 | 104 | 103 | 106 | 0.22 | 23.2
4 | Cn1cc(-c2ccc(-c3ccc(O[C@@H]4C[C@@]5(C)CCC[C@](C)(N5)[C@@H]4F)nn3)c(O)c2)cn1 (single isomer, unassigned) [154-ENT2] | 16 to 50 | 0.01 to 15 | 16 to 50 | 81 | 92 | 3 | 6.92 | 22
5 | Cn1ccc2cc(-c3ccc(O[C@H]4CC5CCC[C@@H](N5)[C@H]4F)nn3)c(O)cc2c1=O (single isomer, unassigned) [125-ENT1] | 101 to 500 | 51 to 100 | 51 to 100 | 101 | 91 | 23 | 3.35 | 76
6 | Oc1cc(-n2ccc(F)n2)ccc1-c1ccc(O[C@@H]2C[C@H]3CCC[C@H](N3)[C@@H]2F)nn1 (single isomer, unassigned) [115-ENT1] | 0.01 to 15 | 0.01 to 15 | 16 to 50 | 44 | 70 | 3 | 7.15 | 20.3
7 | Cn1c(=O)oc2cc(-c3ccc(O[C@@H]4C[C@H]5CCC[C@H](N5)[C@@H]4F)nn3)c(O)cc21 (single isomer, unassigned) [74-ENT1] | 101 to 500 | 501 to 10000 | 501 to 10000 | 96 | 88 | 4 | 5.6 | 22.8
8 | C[C@@]12CCC[C@@](C)(N1)[C@@H](F)[C@@H](Oc1ccc(-c3ccc(-c4cn[nH]c4)cc3O)nn1)C2 (single isomer, unassigned) [147-ENT1] | 0.01 to 15 | 0.01 to 15 | 0.01 to 15 | 78 | 83 | 13 | 4.61 | 58.1
9 | Oc1cc(-c2cn[nH]c2)c(F)cc1-c1ccc(O[C@@H]2C[C@H]3CCC[C@H](N3)[C@@H]2F)nn1 (single isomer, unassigned) [56-ENT1] | 0.01 to 15 | 0.01 to 15 | 0.01 to 15 | 55 | 74 | 15 | 2.63 | 39
10 | Cn1cc(-c2ccc(-c3ccc(O[C@H]4C[C@@H]5CCC[C@@H](N5)[C@H]4F)nn3)c(O)c2)oc1=O (single isomer, unassigned) [97-ENT2] | 16 to 50 | 16 to 50 | 0.01 to 15 | 74 | 82 | 10 | 3.11 | 32
11 | C[C@@]12CC[C@@](C)(N1)[C@@H](F)[C@@H](Oc1ccc(-c3ccc(-c4cn[nH]c4)cc3O)nn1)C2 (single isomer, unassigned) [2-ENT2] | 0.01 to 15 | 0.01 to 15 | 0.01 to 15 | 90 | 87 | 3 | 14.5 | 46.4
12 | Oc1cc(-c2nnco2)ccc1-c1ccc(O[C@@H]2C[C@H]3CCC[C@H](N3)[C@@H]2F)nn1 (single isomer, unassigned) [117-ENT1] | 101 to 500 | 101 to 500 | 51 to 100 | 85 | 106 | 6 | 7.92 | 47.5
13 | Cn1ccc2cc(O)c(-c3ccc(O[C@@H]4C[C@H]5CC[C@H](N5)[C@@H]4F)nn3)cc2c1=O (single isomer, unassigned) [129-ENT2] | 51 to 100 | 16 to 50 | 0.01 to 15 | 72 | 79 | 9 | 4.94 | 45.7
14 | Cn1cnc2cc(O)c(-c3ccc(O[C@H]4C[C@]5(C)CCC[C@@](C)(N5)[C@H]4F)nn3)cc2c1=O (single isomer, unassigned) [133-ENT1] | 101 to 500 | 51 to 100 | 0.01 to 15 | 81 | 87 | 10 | 4.98 | 52.4
15 | Cn1ccc2cc(O)c(-c3ccc(O[C@H]4C[C@@H]5CC[C@@H](N5)[C@H]4F)nn3)cc2c1=O (single isomer, unassigned) [129-ENT1] | 101 to 500 | 101 to 500 | 16 to 50 | 89 | 91 | 12 | 4.29 | 52.8
16 | Cn1cc(-c2ccc(-c3ccc(O[C@H]4C[C@@H]5CC[C@@H](N5)[C@H]4F)nn3)c(O)c2)cn1 (single isomer, unassigned) [60-ENT2] | 16 to 50 | 16 to 50 | 51 to 100 | 67 | 78 | 4 | 8.12 | 31.3
17 | Cn1cc(-c2cc(O)c(-c3ccc(O[C@H]4C[C@@H]5CCC[C@@H](N5)[C@H]4F)nn3)cc2F)cn1 (single isomer, unassigned) [82-ENT2] | 0.01 to 15 | 0.01 to 15 | 0.01 to 15 | 35 | 72 | 4 | 3.26 | 12.8
18 | Cn1cc(-c2ccc(-c3ccc(O[C@@H]4C[C@@]5(C)CC[C@](C)(N5)[C@@H]4F)nn3)c(O)c2)cn1 (single isomer, unassigned) [150-ENT2] | 16 to 50 | 16 to 50 | 16 to 50 | 78 | 87 | 4 | 9.06 | 38.6
